We go through 1 compound from ChEMBL document CHEMBL4325924, “Discovery of Orally Bioavailable and Liver-Targeted Hypoxia-Inducible Factor Prolyl Hydroxylase (HIF-PHD) Inhibitors for the Treatment of Anemia” (ACS Med Chem Lett, 2018).

A short description of series [1]: Plasma clearance in Wistar Han rat at 1 mg/kg, iv or 2 mg/kg, po administered via gavage by LC-MS/MS analysis. The class given is ADME, organism-based.
The nature of series [2]: Volume of distribution in Wistar Han rat at 1 mg/kg, iv or 2 mg/kg, po administered via gavage by LC-MS/MS analysis. The class given is ADME, organism-based. The settings on record: in vivo.
The nature of series [3]: Half life in Wistar Han rat at 1 mg/kg, iv or 2 mg/kg, po administered via gavage by LC-MS/MS analysis. The class given is ADME, organism-based. The settings on record: in vivo.
The nature of series [4]: Oral bioavailability in Wistar Han rat at 2 mg/kg administered via gavage by LC-MS/MS analysis. The class given is ADME, organism-based. The settings on record: in vivo.
A short description of series [5]: Plasma clearance in Beagle dog at 0.175 mg/kg, iv or 1 mg/kg, po administered via gavage by LC-MS/MS analysis. The class given is ADME, organism-based, Canis lupus familiaris.
The nature of series [6]: Volume of distribution in Beagle dog at 0.175 mg/kg, iv or 1 mg/kg, po administered via gavage by LC-MS/MS analysis. To be noted: in vivo. The class given is ADME, organism-based, Canis lupus familiaris.
Series [7] in a line: Half life in Beagle dog at 0.175 mg/kg, iv or 1 mg/kg, po administered via gavage by LC-MS/MS analysis. The settings on record: in vivo. The class given is ADME, organism-based, Canis lupus familiaris.
The nature of series [8]: Oral bioavailability in Beagle dog at 1 mg/kg administered via gavage by LC-MS/MS analysis. The class given is ADME, organism-based, Canis lupus familiaris. The settings on record: in vivo.

Usually half-life stands for how long it takes for the measured level to halve. Low readings indicate fast loss, high ones slow loss. The term bioavailability denotes the share of a dose that reaches the circulation, judged against a reference dose that is usually intravenous.

Consider `O=C(O)CNC(=O)c1c(O)c2c(n(Cc3ccc(C(F)(F)F)cc3)c1=O)COC2`, for which the clearance amounted to 11 mL/min/kg in series [1] and 17 mL/min/kg in series [5]. Also, the Vd stood at 3.1 L/kg in series [2] and 5.6 L/kg in series [6]. Also, the values for the half-life in series [3] and in series [7] were 7.3 h and 6.2 h, respectively. In addition, the bioavailability in series [4] came to 39%; in series [8] it was 25%.
